Assay results taken from patent US20160274123A1, “One-Photon and/or Two-Photon Fluorescent Probe for Sensing Hydrogen Sulfide, Imaging Method of Hydrogen Sulfide Using Same, and Manufacturing Method Thereof” (POSTECH ACADEMY-INDUSTRY FOUNDATION, priority 2013, published 2016).
“Also recorded” adds a separate entry of the source.

Key:
[1] = Fluorescence change under hydrogen sulfide and biological sulfide conditions (selectivity); conditions: Compound 10 μM; Na2S 100 μM, GSH 10 mM, Cys 200 μM, Hcy 50 μM; pH 7.4 HEPES buffer; excitation 375 nm, emission 510 nm
Protocol: To confirm the hydrogen sulfide selectivity of Compound 2 under hydrogen sulfide and biological sulfide conditions, the fluorescence change of Compound 2 (10 μM) was observed under biological sulfide conditions (Na2S (100 μM), the same material as H2S), glutathione (GSH, 10 mM), cysteine (Cys, 200 μM), and homocysteine (Hcy, 50 μM) (using the same buffer as used in Example 1)). Here, an excitation wavelength was 375 nm, and a fluorescence emission wavelength was detected to be 510 nm.
That is, the fluorescence changes of Compounds 2, 3 and 4 (10 μM) were observed under the biological sulfide conditions (Na2S (100 μM, the same as H2S), glutathione (GSH, 10 mM), cysteine (Cys, 200 μM), homocysteine (Hcy, 50 μM)), a buffer used in the experiment was the same as used in Example 1, an excitation wavelength was 375 nm, and a fluorescence emission wavelength was detected to be 510 nm.

[2] = Fluorescence change of the probe on reaction with hydrogen sulfide in buffer; conditions: Compound 10 μM
Protocol: A mechanism of a fluorescence turn-on phenomenon according to a reaction between Compound 2 and hydrogen sulfide is shown in FIG. 1a, an α-β unsaturated carbonyl group of Compound 2 reacted with hydrogen sulfide to induce a ring-shape in a chemical reaction.
Therefore, to observe the fluorescence change of Compound 2 due to hydrogen sulfide, a fluorescence graph of Compound 2 was measured in a buffer (pH 7.4, 10 mM HEPES buffer). For fluorescence spectra analysis, a photon technical international fluorescence system manufactured by PTI was used, as a cell providing Compound 2 to each instrument, a standard quartz cell having a thickness of 1 cm was used. First, Compound 2 (10 μM) was treated with hydrogen sulfide at a concentration of 0 to 50 μM, and after 5 minutes, a fluorescence graph was checked.
To observe the fluorescence change of Compound 2 over time due to hydrogen sulfide, Compound 2 (10 μM) was treated with 100 μM of hydrogen sulfide (using the same buffer as used in Example 1), and a graph of fluorescence over time was analyzed. When an excitation wavelength was 375 nm, a fluorescence emission wavelength was detected to be 510 nm.
To observe the hydrogen sulfide sensitivity of Compound 2 based on fluorescence change, an amount of Na2S (the same as H2S) in Compound 2 (10 μM) was reduced. A buffer used in the experiment was the same as used in Example 1, 50 nM of Na2S was added, an excitation wavelength was 375 nm, and a fluorescence emission wavelength was detected to be 510 nm.
To observe fluorescence changes of Compound 2 due to hydrogen sulfide under various acidity (pH) conditions, the fluorescence changes were examined when Compound 2 (10 μM) bound to H2S under various acidity conditions (pH 5˜9). In other words, 100 μM of H2S reacted to Compound 2 at pH 5, 6, 7, 8, or 9, and then 5 minutes later, a fluorescence intensity was measured. Here, an excitation wavelength was 375 nm, and a fluorescence emission wavelength was detected to be 510 nm.

[3] = Fluorescence change on reaction with various types of biological substances; conditions: Compound 10 μM; amino acids, lipoic acid, anions, H2O2 each 100 μM; about 30 minutes; pH 7.4 HEPES buffer
Protocol: To observe fluorescence changes according to reactions between various types of biological substances and Compound 2, Compound 2 (10 μM) was reacted with a biologically-active substance (an amino acid (Ala, Glu, Lys, or Met), lipoic acid, an anion (NO^2−, SO4^2−, S2O3^2−, SCN^−, or I^−), and active oxygen (H2O2). A buffer used in the experiment was the same as used in Example 1, and the concentration of each biologically-active substance was 100 μM. Each biologically-active substance was added, and after about 30 minutes, an excitation wavelength was 375 nm, and a fluorescence emission wavelength was detected to be 510 nm.

HeLa cells [4] = test: Cell imaging using one-photon and two-photon fluorescence microscopes; format: cell-based, human; conditions: probe 10 μM
Protocol: To observe a fluorescence change according to the treatment with Compound 2 through cell imaging using one-photon and two-photon fluorescence microscopes, Compound 2 (10 μM) was treated with human cervical carcinoma cells (HeLa cells). The HeLa cells were cultured in a Dulbecco's modified eagles medium (DMEM, Hyclone) containing 10% fetal bovine serum (Hyclone) and penicillin-streptomycin (Hyclone) with 5% carbon dioxide at an ambient temperature of 37° C. to a cell density of about 20,000 cells/cm^2, and used in the experiment. The used one-photon fluorescence microscope is an LSM710 confocal microscope manufactured by Carl Ziess, and the two-photon fluorescence microscope is a Chameleon Ultra model having a Ti-sapphire laser, which is manufactured by Coherent. A lens used in the two-photon fluorescence microscope is an XLUMPLFNM, NA 1.0 model manufactured by Olympus, and a wavelength and laser power of the two-photon fluorescence microscope are 880 nm and 15 mW, respectively. […]

[5] = system: hydrogen sulfide (H2S) in each organ (the brain, kidney, liver, spleen or lung) of a mouse; test: Mouse organ tissue imaging using two-photon fluorescence microscope; format: in vivo
Protocol: Tissue imaging per each organ of a Compound 2 treated mouse was performed using a two-photon fluorescence microscope. That is, the distribution of hydrogen sulfide (H2S) in each organ (the brain, kidney, liver, spleen or lung) of a mouse was confirmed using Compound 2. To this end, a set (1′) was prepared by injecting Compound 2 into the abdominal cavity of a live mouse and extracting an organ, and a set (2′) was prepared by extracting each organ of a mouse and immersing the organ in a solution of Compound 2. The mouse used in the experiment was a C57BL6 type (SAMTAKO Corp.), which is five weeks old. More particularly, for the set (1′), 20 μL of a 10 mM solution of Compound 2, which had been taken and diluted in 280 μL of a PBS (100 mM, pH 7.4) buffer, was injected into the abdominal cavity of a mouse twice a day for a total of 5 days, and then each organ was extracted. The extracted organ was frozen in dry ice for 5 minutes, crushed into smaller pieces with a hammer, and cut to a thickness of 16 μm using a section machine (Cryostat machine, Leica, CM3000 model). […] Subsequently, the resultant sample was washed three times with a PBS buffer, covered with a mount solution (Gel Mount, BIOMEDA), and then imaged using a two-photon fluorescence microscope, which is the same as used in Example 7. However, an excitation wavelength and laser power of the two-photon fluorescence microscope were 880 nm and 40 mW, respectively. Also, for the set (2′), first, each organ of a mouse was extracted and immersed in a solution (10 μM) of Compound 2 for 10 minutes, and then a sample prepared as described above was imaged by the same method used for the set (1′).

HeLa cells [6] = test: Cytotoxicity experiment by MTT method; format: cell-based, human
Protocol: To confirm the cytotoxicity of Compound 2 according to the present invention, a cytotoxicity experiment in HeLa cells was performed by an MTT method. That is, the Hela cells prepared by the same method as used in Example 7 were treated with Compound 2 at each concentration (0˜100 μM). In addition, to confirm the cytotoxicity, 25 μL of 3-(4,5-dimethldiazol-2-yl)-2, 5-diphenyltetrazolium bromide (MTT) having a concentration of 5 mg/mL was added. The cells were cultured at 37° C. for about 2 hours, treated with 100 μL of a solubilizing solution (50% dimethylformamide, 20% SDS, pH 7.4), and cultured at 37° C. for 24 hours, and then the absorbance was measured at 570 nm.

[7] = 100 μM hydrogen sulfide, pH 7.4 10 mM HEPES buffer, excitation 375 nm, emission 510 nm

Row | Compound | selectivity to hydrogen sulfide under biological sulfide conditions [1] | signal to noise ratio of fluorescence turn-on ([2]; 50 nM Na2S, about 5 minutes after addition, pH 7.4 HEPES buffer) | fluorescence change due to hydrogen sulfide under various acidity (pH) conditions ([2]; 100 μM H2S, pH 5, 6, 7, 8 or 9, 5 minutes) | time to approach the maximum fluorescence level [2, 7] [min] | time to saturation of fluorescence emission [2, 7] | fluorescence change with increasing concentration of hydrogen sulfide ([2]; hydrogen sulfide 0 to 50 μM, after 5 minutes, pH 7.4 10 mM HEPES buffer, excitation 375 nm, emission 510 nm) | low concentration of Na2S (H2S) at which fluorescence can be observed (sensitivity) ([2]; pH 7.4 HEPES buffer, excitation 375 nm, emission 510 nm) [nM] | selective fluorescence turn-on versus various biologically-active substances [3] | permeation into cells (HeLa cells [4]) | fluorescence change in cells treated only with the probe (HeLa cells [4]; cultured 30 minutes, set (2)) | two-photon fluorescence signal in organs after abdominal injection ([5]; set (1′): C57BL6 mouse, injected into the abdominal cavity twice a day for 5 days, organs extracted) | permeation into organs after abdominal injection ([5]; set (1′): living C57BL6 mouse, abdominal injection) | two-photon fluorescence change in extracted organs immersed in probe solution ([5]; set (2′): extracted mouse organs immersed in 10 μM solution for 10 minutes) | cytotoxicity (HeLa cells [6]; 0˜100 μM) | cell viability (HeLa cells [6]; concentrations until 100 μM) [%]
1 | COc1cccc(C=O)c1/C=C/C(=O)c1ccc2cc(NCCO)ccc2c1 [Compound 3, (E)-2-(3-(6-(2-hydroxyethylamino)naphthalene-2-yl)-3-oxoprop-1-enyl)-3-methoxybenzaldehyde] | relatively lower selectivity to hydrogen sulfide than Compound 2 | – | – | – | – | – | – | – | – | – | – | – | – | – | –
2 | COc1cc(C=O)c(/C=C/C(=O)c2ccc3cc(NCCO)ccc3c2)c(OC)c1 [Compound 2, (E)-2-(3-(6-(2-hydroxyethylamino)naphthalene-2-yl)-3-oxoprop-1-enyl)-3,5-dimethoxybenzaldehyde] | sufficient fluorescence turn-on phenomenon only in a reaction with Na2S; also recorded: high selectivity to hydrogen sulfide | ≥ 3 | the sharpest increase in fluorescence was shown at neutral pH | ≤ 5 | about 10 minutes | fluorescence intensity was increased | 50 | only reacts with hydrogen sulfide (H2S) | easily permeates into cells | showed an increase in fluorescence | signals are increased in the brain, kidney, liver, spleen and lung | permeated throughout the organ, particularly, into the brain | strong fluorescence changes are shown in the brain, liver and lung | not toxic to the cells | ≥ 95
3 | O=Cc1ccccc1/C=C/C(=O)c1ccc2cc(NCCO)ccc2c1 [Compound 4, (E)-2-(3-(6-(2-hydroxyethylamino)naphthalene-2-yl)-3-oxoprop-1-enyl)benzaldehyde] | did not have selectivity to hydrogen sulfide | – | – | – | – | – | – | – | – | – | – | – | – | – | –
